Source: patent publication US20090170762A1, “Treatment of Diabetes Related Obesity” (UUTech Limited, priority 2005, published 2009)
Ends that are not written are not given here.

Experiments:
DPP-IV = DPP-IV (Homo sapiens, UniProt P27487); test: Degradation of GIP and Glu3-substituted GIP analogs by DPP-IV (HPLC); assay type: in vitro ADME; conditions: for half-life at 2 μm: DPP-IV enzyme (5 mU) in buffer, pH 7.8, incubation with DPP-IV, unit not given (time points in hrs), read-out: Estimated Half-Life (converted); for Intact Peptide Remaining (%) 0 hrs. / remaining at 2 h, 2 μm / remaining at 4 h, 2 μm / remaining at 8 h, 2 μm: incubation with DPP-IV (5 mU), 37°C; for Intact Peptide Remaining (%) 0 hrs.: pH 7.8, 0 hrs; for remaining at 2 h, 2 μm / remaining at 4 h, 2 μm / remaining at 8 h, 2 μm: isolated DPP-IV enzyme (5 mU); for remaining at 2 h, 2 μm: pH 7.8, 2 hrs, read-out: Intact Peptide Remaining (%) 2 hrs.; for remaining at 4 h, 2 μm: pH 7.8, 4 hrs, read-out: Intact Peptide Remaining (%) 4 hrs.; for remaining at 8 h, 2 μm: pH 7.8, 8 hrs, read-out: Intact Peptide Remaining (%) 8 hrs.; for resistance to DPP-IV degradation: words, up to 8 hours incubation
BRIN-BD11 cells = test: Insulin secretion from BRIN-BD11 cells; assay type: cell-based; conditions: for Maximal insulin response (% GIP max) / Insulin response in presence of 10^-7 M GIP (% GIP max): 5.6 mm glucose; for Maximal insulin response (% GIP max): 20 min; for Insulin response in presence of 10^-7 M GIP (% GIP max): in presence of 10^-7 M native GIP; for effect on GIP-stimulated insulin secretion: in presence of GIP (10^-7 m)
Procedure: (§1) Tissue Culture. Chinese Hamster Lung (CHL) fibroblast cells stably transfected with the human GIP-R were cultured in DMEM tissue culture medium containing 10%. (v/v) fetal bovine serum, 1% (v/v) antibiotics (100 U/ml penicillin, 0.1 mg/ml streptomycin) (all from Gibco, Paisley, Strathclyde, Scotland). BRIN-BD11 cells were cultured in RPMI-1640 tissue culture medium containing 10% (v/v) fetal bovine serum, 1% (v/v) antibiotics (100 U/ml penicillin, 0.1 mg/ml streptomycin) and 11.1 mm glucose. The origin and secretory characteristics of these cells have been described in detail previously (McClenaghan, N. H. et al., 1996, Diabetes 45:1132-1140). The cells were maintained in sterile tissue culture flasks (Corning Glass Works, Sunderland, UK) at 37° C. in an atmosphere of 5% CO2 and 95% air using a LEEC incubator (Laboratory Technical Engineering, Nottingham, UK).
Methods. Insulin release from BRIN-BD11 cells was determined by use of cell monolayers as described previously (Gault, V. A. et al. 2002, Biochem. J. 367:913-920). In brief, BRIN-BD11 cells were seeded into 24-well plates (Nunc, Roskilde, Denmark) at a density of 1.5×10^5 cells per well and allowed to attach overnight in RPMI-1640 culture medium at 37° C. Acute tests for insulin secretion were preceded by 40 minutes pre-incubation at 37° C. in 1.0 ml Krebs Ringer Bicarbonate Buffer (KRBB, 115 mm NaCl, 4.7 mm KCl, 1.28 mm CaCl2, 1.2 mM MgSO4, 1.2 mm KH2PO4, 25 mM HEPES and 10 mm NaHCO3; pH 7.4 with NaOH) supplemented with 0.1% (w/v) BSA and 1.1 mM glucose. […] After 20 minutes incubation, the buffer was removed and used for measurement of insulin by radioimmunoassay (Flatt, P. R. and Bailey, C. J., 1981, Diabetologia 5:573-577).

ob/ob mice = test: Acute antihyperglycaemic and insulin releasing activity with glucose and native GIP in ob/ob mice; assay type: in vivo, mouse; conditions: for plasma glucose and insulin profiles when administered together with native GIP: 25 nmol/kg i.p. with GIP and glucose 18 mmol/kg, vs native GIP
Procedure: Animals. Obese diabetic (ob/ob) mice derived from the colony maintained at Aston University, UK (Bailey C. J. et al., 1982, Int. J. Obes. 6:11-21) were used at 14-18 weeks of age. Animals were age-matched, divided into groups and housed individually in an air-conditioned room at 22±2° C. with a 12 hour light: 12 hour dark cycle (08:00-20:00 hr). Drinking water and a standard rodent maintenance diet (Trouw Nutrition, Cheshire, UK) were freely available. All animal experiments were carried out in accordance with the UK Animals (Scientific Procedures) Act 1986.
Biochemical analysis. Plasma glucose was assayed by an automated glucose oxidase procedure ([…]) using a Beckman Glucose Analyzer II (Beckman Instruments, Galway, Ireland). Plasma insulin was assayed by radioimmunoassay.
Methods. […] All test solutions were administered in a final volume of 5 ml/kg body weight. Blood samples were collected from the cut tip of the tail vein of conscious mice into chilled fluoride/heparin coated glucose microcentrifuge tubes (Sarstedt, Numbrecht, Germany) immediately prior to injection and at 15, 30 and 60 minutes post injection. Blood samples were immediately centrifuged using a Beckmnan microcentrifuge (Beckman Instruments, High Wycombe, Buckinghamshire, UK) for 30 seconds at 13,000×g. Plasma glucose was assayed using a Beckman Glucose Analyzer n (Beckman Instruments, High Wycombe, Buckinghamshire, UK) (Stevens, J. F., 1971, Clin. Chim. Acta 32:199-201) and plasma insulin was determined by RIA (Flatt, P. R. and Bailey, C. J., 1981, Diabetologia 5:573-577). All animal studies were carried out in accordance with the UK Animals (Scientific Procedures) Act 1986.

human GIP-R = target: T1, human GIP-R (Homo sapiens, UniProt P48546); test: Cyclic AMP production in GIP-R transfected CHL cells; assay type: cell-based; conditions: for remaining activity at 0.1 µM: CHL, read-out: cAMP response in presence of 10^-7 M GIP (% GIP max); for inhibition of GIP-stimulated cAMP production: in presence of GIP (10^-7 m)
T1 construct: expressed in transfected cells; host or cells: Chinese Hamster Lung (CHL) fibroblast cells, stably transfected
T1 sequence (P48546 22-466): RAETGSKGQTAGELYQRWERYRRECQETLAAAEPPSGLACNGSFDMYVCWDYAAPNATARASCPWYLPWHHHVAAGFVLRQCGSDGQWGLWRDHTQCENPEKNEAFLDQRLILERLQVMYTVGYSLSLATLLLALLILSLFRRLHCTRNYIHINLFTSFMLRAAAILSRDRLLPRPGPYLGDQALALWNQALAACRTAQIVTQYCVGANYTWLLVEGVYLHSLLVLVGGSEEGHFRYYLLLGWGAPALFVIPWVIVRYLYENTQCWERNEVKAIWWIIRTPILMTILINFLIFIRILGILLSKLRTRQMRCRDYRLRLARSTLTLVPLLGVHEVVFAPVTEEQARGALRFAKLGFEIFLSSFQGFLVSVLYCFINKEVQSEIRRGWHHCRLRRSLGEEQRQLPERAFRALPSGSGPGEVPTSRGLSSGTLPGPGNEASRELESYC
Procedure: as §1, with “Chinese Hamster Lung (CHL) fibroblast cells stably transfected with the human GIP-R were cultured in DMEM tissue culture medium containing 10%.” left out
Methods. […] The culture medium was removed and cells subsequently washed twice with 2 ml ice-cold HBS buffer (130 mm NaCl, 20 mm HEPES, 0.9 mm NaHPO4, 0.8 mm MgSO4, 5.4 mm KCl, 1.8 mm CaCl2, 5.6 mm glucose and 25 μm phenol red) (pH 7.4). […] The medium was subsequently removed and the cells lysed with […] of lysing solution (5% TCA, 3% SDS, 92% H2O, also containing 0.1 mm unlabelled cAMP and 0.1 mm unlabelled ATP) (Sigma, Poole, Dorset, UK). The plates were then left on a shaker at room temperature for 30 minutes and tritiated cAMP formation determined by column chromatography using Dowex and alumina ion exchange columns (BioRad Life Science Research, Alpha Analytical, Larne, UK) as previously described (Gault, V. A. et al 2002, Biochem. J. 367:913-920).

Sequence of DPP-IV (P27487 whole entry, species assumed): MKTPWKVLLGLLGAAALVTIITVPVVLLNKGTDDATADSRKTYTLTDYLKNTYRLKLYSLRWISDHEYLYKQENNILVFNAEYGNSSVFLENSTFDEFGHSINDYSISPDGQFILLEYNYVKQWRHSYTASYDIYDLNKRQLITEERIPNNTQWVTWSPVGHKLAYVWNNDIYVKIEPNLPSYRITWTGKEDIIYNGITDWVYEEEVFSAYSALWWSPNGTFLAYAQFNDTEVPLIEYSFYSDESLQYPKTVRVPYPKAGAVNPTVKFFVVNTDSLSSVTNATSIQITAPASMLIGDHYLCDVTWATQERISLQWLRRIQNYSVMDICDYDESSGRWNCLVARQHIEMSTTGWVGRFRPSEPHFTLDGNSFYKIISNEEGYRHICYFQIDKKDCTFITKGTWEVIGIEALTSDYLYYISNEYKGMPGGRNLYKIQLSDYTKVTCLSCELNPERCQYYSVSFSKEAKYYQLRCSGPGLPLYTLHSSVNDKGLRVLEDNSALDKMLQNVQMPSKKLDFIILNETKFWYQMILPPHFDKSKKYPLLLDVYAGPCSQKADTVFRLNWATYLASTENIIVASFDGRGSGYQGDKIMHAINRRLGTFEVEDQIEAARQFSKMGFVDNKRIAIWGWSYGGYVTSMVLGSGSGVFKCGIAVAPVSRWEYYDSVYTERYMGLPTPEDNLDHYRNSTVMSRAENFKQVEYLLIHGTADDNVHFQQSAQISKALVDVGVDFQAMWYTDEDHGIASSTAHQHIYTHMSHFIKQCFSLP

Compound | half-life at 2 μm (DPP-IV) [h] | Intact Peptide Remaining (%) 0 hrs. (DPP-IV) [%] | remaining at 2 h, 2 μm (DPP-IV) [%] | remaining at 4 h, 2 μm (DPP-IV) [%] | remaining at 8 h, 2 μm (DPP-IV) [%] | resistance to DPP-IV degradation (DPP-IV) | Maximal insulin response (% GIP max) (BRIN-BD11 cells; BRIN-BD11 cells) | Insulin response in presence of 10^-7 M GIP (% GIP max) (BRIN-BD11 cells; BRIN-BD11 cells) | glycaemic excursion and insulin response (ob/ob mice; compared with i.p. glucose alone) | EC50 (human GIP-R) [nM] | remaining activity at 0.1 µM (human GIP-R) [%] | inhibition of GIP-stimulated cAMP production (human GIP-R) | stimulation of insulin secretion compared with control incubations (BRIN-BD11 cells; BRIN-BD11 cells, vs 5.6 mm glucose alone) [fold] | effect on GIP-stimulated insulin secretion (BRIN-BD11 cells) | plasma glucose and insulin profiles when administered together with native GIP (ob/ob mice)
CC[C@H](C)[C@H](NC(=O)[C@H](CO)NC(=O)[C@H](Cc1ccc(O)cc1)NC(=O)[C@H](CC(=O)O)NC(=O)[C@H](CO)NC(=O)[C@@H](NC(=O)[C@H](Cc1ccccc1)NC(=O)[C@@H](NC(=O)CNC(=O)[C@H](CCC(=O)O)NC(=O)[C@H](C)NC(=O)[C@@H](N)Cc1ccc(O)cc1)[C@@H](C)O)[C@@H](C)CC)C(=O)N[C@@H](C)C(=O)N[C@@H](CCSC)C(=O)N[C@@H](CC(=O)O)C(=O)N[C@@H](CCCCN)C(=O)N[C@H](C(=O)N[C@@H](Cc1c[nH]cn1)C(=O)N[C@@H](CCC(N)=O)C(=O)N[C@@H](CCC(N)=O)C(=O)N[C@@H](CC(=O)O)C(=O)N[C@@H](Cc1ccccc1)C(=O)N[C@H](C(=O)N[C@@H](CC(N)=O)C(=O)N[C@@H](Cc1c[nH]c2ccccc12)C(=O)N[C@@H](CC(C)C)C(=O)N[C@@H](CC(C)C)C(=O)N[C@@H](C)C(=O)N[C@@H](CCC(N)=O)C(=O)N[C@@H](CCCCN)C(=O)NCC(=O)N[C@@H](CCCCN)C(=O)N[C@@H](CCCCN)C(=O)N[C@@H](CC(N)=O)C(=O)N[C@@H](CC(=O)O)C(=O)N[C@@H](Cc1c[nH]c2ccccc12)C(=O)N[C@@H](CCCCN)C(=O)N[C@@H](Cc1c[nH]cn1)C(=O)N[C@@H](CC(N)=O)C(=O)N[C@H](C(=O)N[C@H](C(=O)N[C@@H](CCC(N)=O)C(=O)O)[C@@H](C)O)[C@@H](C)CC)C(C)C)[C@@H](C)CC [GIP, reference compound] | 1.3 | 100 | 20.9 ± 1.6 | 4.9 ± 1.2 | 0 | complete degradation by 8 hours | 100 | 100 | decreased the glycaemic excursion and enhanced insulin response | – | – | – | – | – | –
YAAGTFISDYSIAMDKIHQQDFVNWLLAQKGKKNDWKHNITQ [(Ala^3)GIP] | 1.1 | 100 | 5.9 ± 1.7 | 2.7 ± 0.1 | 0 | least resistant | 111 ± 6 | 115 ± 3 | – | 2.3 | 88 ± 3 | did not significantly inhibit | 1.7 | did not significantly affect | significantly inhibited the action of GIP
YAFGTFISDYSIAMDKIHQQDFVNWLLAQKGKKNDWKHNITQ [(Phe^3)GIP] | 1.2 | 100 | 15 ± 5.2 | 2.5 ± 0.1 | 0 | – | 75 ± 3 | 73 ± 3 | – | 1 | 62 ± 3 | significantly inhibited | – | significantly inhibited | significantly inhibited the action of GIP
YAKGTFISDYSIAMDKIHQQDFVNWLLAQKGKKNDWKHNITQ [(Lys^3)GIP] | 1.7 | 100 | 41.4 ± 0.3 | 14.9 ± 1.1 | 0 | significantly more resistant | 78 ± 3 | 78 ± 4 | – | 2.6 | 63.5 ± 4 | significantly inhibited | – | significantly inhibited | did not significantly alter
